The target of the assay is T1, ERα (Homo sapiens, UniProt P03372).
T1 construct: host or cells: MCF-7
T1 sequence (P03372 1-595): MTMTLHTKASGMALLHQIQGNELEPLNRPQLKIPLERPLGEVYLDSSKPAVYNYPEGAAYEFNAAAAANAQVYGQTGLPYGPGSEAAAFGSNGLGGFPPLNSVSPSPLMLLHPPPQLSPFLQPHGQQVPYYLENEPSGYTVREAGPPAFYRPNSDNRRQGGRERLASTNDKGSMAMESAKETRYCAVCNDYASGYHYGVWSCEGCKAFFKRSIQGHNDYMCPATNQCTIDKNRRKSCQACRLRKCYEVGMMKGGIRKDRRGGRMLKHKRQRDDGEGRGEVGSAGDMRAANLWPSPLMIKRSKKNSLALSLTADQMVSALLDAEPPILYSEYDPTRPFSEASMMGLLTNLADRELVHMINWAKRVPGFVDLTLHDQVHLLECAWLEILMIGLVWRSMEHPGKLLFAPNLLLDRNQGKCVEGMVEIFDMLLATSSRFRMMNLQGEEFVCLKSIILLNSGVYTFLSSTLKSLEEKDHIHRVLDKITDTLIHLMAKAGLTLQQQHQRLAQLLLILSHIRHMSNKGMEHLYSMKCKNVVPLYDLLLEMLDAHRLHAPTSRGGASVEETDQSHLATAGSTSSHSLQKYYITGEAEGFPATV
Description: ER degradation activity in MCF-7 cells (Western blot, grayscale intensity). Conditions: 6 hours treatment, 1 nM to 100 nM, concentration required to degrade 50% of the target protein. The format is cell-based. As for the experimental part:
ERα-positive human breast cancer cells MCF-7 (ATCC, HTB-22) were cultured with EMEM medium (ATCC, catalog number 30-2003) containing 10% fetal bovine serum (Thermo Fisher, catalog number 10099141) and 10 µg/mL bovine insulin in 25 cm^2 or 75 cm^2 plastic tissue culture flasks in a 37 °C incubator with 5% CO2. The cells were passaged 2 to 3 times per week. MCF-7 cells were seeded in 6-well plate at 1×10^6 cells/well with 1.8 mL culture medium per well, and cultured in a 37 °C incubator with 95% air and 5% CO2. After 24 hours, the test compounds were added: the compounds were serially diluted 10-fold in DMSO starting from 10 mM (dissolved in DMSO) to prepare gradient stock solutions. A complete culture medium containing 1% DMSO was prepared for further dilution, temporarily named as the "dilution buffer." Working solutions were prepared by diluting each stock solution with 99 times the volume of dilution buffer, that is, by adding 1 µL of the 10 mM stock solution to 99 µL of the dilution buffer and mixing thoroughly.
Finally, […] of the working solution was added to the cell-seeded culture plate. The final concentration of DMSO in the cell culture medium was 0.2%, and the final concentration of the test compounds ranged from 1 nM to 100 nM. The cells were then incubated at 37 °C for 6 hours.
The culture medium was removed, and the cells were washed twice with ice cold PBS. 1 mL of PBS was added to each well, and the cells were collected into EP tubes using a cell scraper, and centrifuged at 4 °C, 4000 rpm for 5 minutes. PBS was aspirated. Total protein was extracted using the Minute™ Mammalian Tissue/Cell Total Protein Extraction Reagent. The protein concentration was measured using the BCA protein assay kit. 30 µg of protein was taken and mixed with 5× SDS-PAGE loading buffer, boiled for 10 minutes, and cooled. The samples were loaded into wells of a precast gel, with constant voltage at 80 V for 30 minutes, and then the voltage was changed to 120 V after the samples entered the resolving gel. The "sandwich" (sponge - filter paper - gel - membrane - filter paper - sponge) was assembled for Bio-Rad's Transblot. Transfer was performed for 1 hour at 0.3 amp at 4 °C. The sample was blocked with 5% fat-free milk for 1 hour, and incubated with Estrogen Receptor alpha Antibody (Thermo Fisher, catalog number MA5-14104) overnight at 4 °C. The membrane was washed with TBST to remove non-specifically bound antibodies, and then incubated with goat anti-mouse IgG-HRP secondary antibody for 1 hour at room temperature, and was visualized using ECL. The protein degradation level was calculated by measuring the grayscale intensity.
The DC50 values (i.e., the concentration of the test compounds required to degrade 50% of the target protein) were calculated and shown in Table 1. A corresponds to a DC50 value below 10 nM, B corresponds to a DC50 value greater than 10 nM and less than 100 nM, and C corresponds to DC50 values greater than 100 nM. Table 1. The DC50 values of exemplary compounds in MCF-7 cells
(In western blotting, separated proteins are transferred to a membrane and probed.)

For orientation: DC50 means the midpoint of the concentration-degradation curve.

Consider `CC1(C)CC(=C(c2ccc3[nH]nc(F)c3c2)c2c(F)cc(OCCN3CCN(c4ccc5c(c4)C(=O)N(C4CCC(=O)NC4=O)C5=O)CC3)cc2F)CC(C)(C)O1` (centres unmarked) [Compound 23], for which the DC50 is > 100 nM.
For `CC1(C)CC(=C(c2ccc3[nH]nc(F)c3c2)c2c(F)cc(OC3CN(CC4CCN(c5ccc6c(c5)C(=O)N(C5CCC(=O)NC5=O)C6=O)CC4)C3)cc2F)CC(C)(C)O1` (centres unmarked) [Compound 24] the value was 10 to 100 nM; for `CC1(C)CC(=C(c2ccc3[nH]nc(F)c3c2)c2c(F)cc(OC3CN(C4CCN(c5ccc6c(c5)C(=O)N(C5CCC(=O)NC5=O)C6=O)CC4)C3)cc2F)CC(C)(C)O1` (centres unmarked) [Compound 25], > 100 nM.
`CC1(C)CC(=C(c2ccc3[nH]nc(F)c3c2)c2c(F)cc(OC3CN(CC4CN(c5ccc6c(c5)C(=O)N(C5CCC(=O)NC5=O)C6=O)C4)C3)cc2F)CC(C)(C)O1` (centres unmarked) [Compound 26]: the DC50 was < 10 nM.
Under `CC1(C)CC(=C(c2ccc(N3CC(CN4CCN(c5ccc6c(c5)C(=O)N(C5CCC(=O)NC5=O)C6=O)CC4)C3)nc2)c2ccc3[nH]nc(F)c3c2)CC(C)(C)O1` (centres unmarked) [Compound 27] stands 10 to 100 nM; under `CC1(C)CC(=C(c2ccc(OCCN3CCN(c4ccc5c(c4)C(=O)N(C4CCC(=O)NC4=O)C5=O)CC3)nc2)c2ccc3[nH]nc(F)c3c2)CC(C)(C)O1` (centres unmarked) [Compound 28], > 100 nM; under `CC1(C)CC(=C(c2ccc3[nH]nc(F)c3c2)c2c(F)cc(N3CC(N4CCN(c5ccc6c(c5)C(=O)N(C5CCC(=O)NC5=O)C6=O)CC4)C3)cc2F)CC(C)(C)O1` (centres unmarked) [Compound 29], > 100 nM.
For `CC1(C)CC(=C(c2ccc(OC3CN(CC4CN(c5ccc6c(c5)C(=O)N(C5CCC(=O)NC5=O)C6=O)C4)C3)nc2)c2ccc3[nH]nc(F)c3c2)CC(C)(C)O1` (centres unmarked) [Compound 30] the value was > 100 nM; for `CC1(C)CC(=C(c2ccc(OC3CN(CC4CN(c5ccc6c(c5)C(=O)N(C5CCC(=O)NC5=O)C6=O)C4)C3)cc2)c2ccc3[nH]nc(F)c3c2)CC(C)(C)O1` (centres unmarked) [Compound 32], > 100 nM.
Under `CC1(C)CC(=C(c2ccc(N3CCC(CN4CCN(c5ccc6c(c5)CN(C5CCC(=O)NC5=O)C6=O)CC4)CC3)nc2)c2ccc3[nH]ncc3c2)CC(C)(C)O1` (centres unmarked) [Compound 39] stands < 10 nM; under `CC1(C)CC(=C(c2ccc(N3CC(CN4CCN(c5ccc6c(c5)CN(C5CCC(=O)NC5=O)C6=O)CC4)C3)nc2)c2ccc3[nH]nc(F)c3c2)CC(C)(C)O1` (centres unmarked) [Compound 40], > 100 nM; under `CC1(C)CC(=C(c2ccc(N3CCC(CN4CCN(c5ccc6c(c5)CN(C5CCC(=O)NC5=O)C6=O)CC4)CC3)cc2)c2ccc3[nH]nc(F)c3c2)CC(C)(C)O1` (centres unmarked) [Compound 41], 10 to 100 nM.
`CC1(C)CC(=C(c2ccc(N3CCC4(CC3)CC(N3CC5(CN(c6ccc7c(c6)CN(C6CCC(=O)NC6=O)C7=O)C5)C3)C4)nc2)c2ccc3[nH]nc(F)c3c2)CC(C)(C)O1` (centres unmarked) [Compound 43]: the 50% degradation concentration (DC50) is > 100 nM.
Under `CN(CC1CCN(c2ccc(C(=C3CC(C)(C)OC(C)(C)C3)c3ccc4[nH]nc(F)c4c3)cn2)CC1)C1CCN(c2ccc3c(c2)CN(C2CCC(=O)NC2=O)C3=O)CC1` (centres unmarked) [Compound 45] stands 10 to 100 nM; under `CC1(C)CC(=C(c2ccc(N3CCC4(CC(N5CCN(c6ccc7c(c6)CN(C6CCC(=O)NC6=O)C7=O)CC5)C4)C3)nc2)c2ccc3[nH]nc(F)c3c2)CC(C)(C)O1` (centres unmarked) [Compound 49], > 100 nM.
Under `CC1(C)CC(=C(c2ccc(N3CC4(CC(N5CCN(c6ccc7c(c6)CN(C6CCC(=O)NC6=O)C7=O)CC5)C4)C3)nc2)c2ccc3[nH]nc(F)c3c2)CC(C)(C)O1` (centres unmarked) [Compound 50] stands > 100 nM.
For `CC1(C)CC(=C(c2ccc(N3CC4C(CN5CCN(c6ccc7c(c6)CN(C6CCC(=O)NC6=O)C7=O)CC5)C4C3)nc2)c2ccc3[nH]nc(F)c3c2)CC(C)(C)O1` (centres unmarked) [Compound 51] the value was > 100 nM; for `CC1(C)CC(=C(c2ccc(N3CCN(C[C@@H]4[C@H]5CN(c6ccc7c(c6)CN(C6CCC(=O)NC6=O)C7=O)C[C@@H]45)CC3)nc2)c2ccc3[nH]nc(F)c3c2)CC(C)(C)O1` (some centres unmarked) [Compound 52], > 100 nM.
In the case of `CC1(C)CC(=C(c2ccc(N3CCN(C4CC5(CCN(c6ccc7c(c6)CN(C6CCC(=O)NC6=O)C7=O)C5)C4)CC3)nc2)c2ccc3[nH]nc(F)c3c2)CC(C)(C)O1` (centres unmarked) [Compound 53], the DC50 is > 100 nM.
Under `CC1(C)CC(=C(c2ccc(N3CCC4(CC3)CC(CN3CCN(c5ccc6c(c5)CN(C5CCC(=O)NC5=O)C6=O)CC3)C4)nc2)c2ccc3[nH]nc(F)c3c2)CC(C)(C)O1` (centres unmarked) [Compound 54] stands > 100 nM; under `CC1(C)CC(=C(c2ccc3[nH]nc(F)c3c2)c2c(F)cc(N3CCC(CN4CCN(c5ccc6c(c5)CN(C5CCC(=O)NC5=O)C6=O)CC4)CC3)cc2F)CC(C)(C)O1` (centres unmarked) [Compound 55], > 100 nM.
Under `CC1(C)CC(=C(c2ccc(N3CCC(CNC4CN(c5ccc6c(c5)CN(C5CCC(=O)NC5=O)C6=O)C4)CC3)nc2)c2ccc3[nH]nc(F)c3c2)CC(C)(C)O1` (centres unmarked) [Compound 57] stands < 10 nM.
On to `CC1(C)CC(=C(c2ccc(N3CCC(N4CCN(c5ccc6c(c5)CN(C5CCC(=O)NC5=O)C6=O)CC4)CC3)cc2)c2ccc3[nH]ncc3c2)CC(C)(C)O1` (centres unmarked) [Compound 58], for which the DC50 was > 100 nM.
Turning to `CC1(C)CC(=C(c2ccc(N3CCC(F)(CN4CCN(c5ccc6c(c5)CN(C5CCC(=O)NC5=O)C6=O)CC4)CC3)nc2)c2ccc3[nH]nc(F)c3c2)CC(C)(C)O1` (centres unmarked) [Compound 59], the DC50 was 10 to 100 nM.
Under `CC1(C)CC(=C(c2ccc(OC3CCN(C4CCN(c5ccc6c(c5)CN(C5CCC(=O)NC5=O)C6=O)CC4)CC3)nc2)c2ccc3[nH]nc(F)c3c2)CC(C)(C)O1` (centres unmarked) [Compound 60] stands > 100 nM; under `CC1(C)CC(=C(c2ccc(N3CCC(F)(CNC4CCN(c5ccc6c(c5)CN(C5CCC(=O)NC5=O)C6=O)CC4)CC3)nc2)c2ccc3[nH]nc(F)c3c2)CC(C)(C)O1` (centres unmarked) [Compound 61], < 10 nM.
Under `CC1(C)CC(=C(c2ccc(N3CCC4(CC3)CC(N3CCN(c5ccc6c(c5)CN(C5CCC(=O)NC5=O)C6=O)CC3)C4)cc2)c2ccc3[nH]nc(F)c3c2)CC(C)(C)O1` (centres unmarked) [Compound 62] stands > 100 nM; under `CC1(C)CC(=C(c2ccc(N3CCC4(CC3)CC(N3CCC(c5ccc6c(c5)CN(C5CCC(=O)NC5=O)C6=O)CC3)C4)nc2)c2ccc3[nH]nc(F)c3c2)CC(C)(C)O1` (centres unmarked) [Compound 63], > 100 nM.
For `CC1(C)CC(=C(c2ccc(N3CCN(C(=O)C4CCN(c5ccc6c(c5)CN(C5CCC(=O)NC5=O)C6=O)CC4)CC3)nc2)c2ccc3[nH]nc(F)c3c2)CC(C)(C)O1` (centres unmarked) [Compound 65] the value was > 100 nM; for `CC1(C)CC(=C(c2ccc(N3CCN(C4CCN(c5ccc6c(c5)CN(C5CCC(=O)NC5=O)C6=O)CC4)CC3)cc2)c2ccc3[nH]ncc3c2)CC(C)(C)O1` (centres unmarked) [Compound 66], 10 to 100 nM; for `CC1(C)CC(=C(c2ccc(N3CCN(C4CCN(c5ccc6c(c5)CN(C5CCC(=O)NC5=O)C6=O)CC4)CC3)nc2)c2ccc3[nH]nc(F)c3c2)CC(C)(C)O1` (centres unmarked) [Compound 67], > 100 nM.
`CC1(C)CC(=C(c2ccc(N3CCC(CN4CCC(N5Cc6cc7c(cc6C5)C(=O)N(C5CCC(=O)NC5=O)C7)CC4)CC3)nc2)c2ccc3[nH]nc(F)c3c2)CC(C)(C)O1` (centres unmarked) [Compound 69]: the DC50 is < 10 nM.

Source of the values: patent publication EP4722209A1 (Beijing Shenogen Pharma Group, priority 2023, dated 2024).
